Assay [1] has as its target T1, Orexin receptor type 2 (Homo sapiens, UniProt O43614).
T1 sequence (O43614 whole entry): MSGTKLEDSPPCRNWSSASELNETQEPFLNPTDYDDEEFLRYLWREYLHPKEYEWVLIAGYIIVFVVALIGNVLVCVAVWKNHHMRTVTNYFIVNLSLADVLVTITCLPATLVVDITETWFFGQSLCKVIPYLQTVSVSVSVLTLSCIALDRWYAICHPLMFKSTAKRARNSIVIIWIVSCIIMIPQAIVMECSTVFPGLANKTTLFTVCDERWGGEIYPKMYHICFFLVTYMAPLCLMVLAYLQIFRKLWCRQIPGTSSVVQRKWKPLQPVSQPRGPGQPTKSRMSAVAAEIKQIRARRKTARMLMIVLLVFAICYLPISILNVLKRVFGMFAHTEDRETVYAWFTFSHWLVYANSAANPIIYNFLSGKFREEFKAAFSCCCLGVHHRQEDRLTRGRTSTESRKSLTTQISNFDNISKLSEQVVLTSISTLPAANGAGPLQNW
The class given is functional, cell-based, RBL-2H3.

Assay [2] addresses T2, Orexin/Hypocretin receptor type 1 (Homo sapiens, UniProt O43613).
T2 sequence (O43613 whole entry): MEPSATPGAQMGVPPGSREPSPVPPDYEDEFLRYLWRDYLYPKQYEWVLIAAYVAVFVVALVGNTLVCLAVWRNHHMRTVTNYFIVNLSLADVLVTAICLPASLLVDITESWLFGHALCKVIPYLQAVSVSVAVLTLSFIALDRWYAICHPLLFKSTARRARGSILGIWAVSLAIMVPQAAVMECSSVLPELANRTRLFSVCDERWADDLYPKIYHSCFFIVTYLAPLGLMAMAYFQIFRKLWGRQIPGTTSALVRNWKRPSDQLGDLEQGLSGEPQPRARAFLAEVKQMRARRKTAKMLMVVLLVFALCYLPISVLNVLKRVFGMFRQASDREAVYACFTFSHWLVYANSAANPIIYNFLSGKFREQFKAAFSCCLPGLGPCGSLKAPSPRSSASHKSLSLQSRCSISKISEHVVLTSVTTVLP
The class given is functional, cell-based, RBL-2H3.

pIC50: −log10 of the molar value. A value given as a limit tells only on which side of the number the result lay.

On to `O=C(N[C@H]1CCC[C@@H]1Nc1ccc(OC(F)(F)F)cn1)c1cc(Cl)ccc1-n1nccn1`, for which the negative-log IC50 (pIC50) in assay [1] is below 5.00; in assay [2] it was 6.39.
Consider `Cc1ccc(-n2nccn2)c(C(=O)N[C@H]2CCC[C@@H]2Nc2ccc(Cl)cn2)c1`, for which the results for the pIC50 in assay [1] and in assay [2] were below 5.00 and 6.57, respectively.
For `COc1cccc(Br)c1C(=O)N[C@H]1CCC[C@@H]1Nc1cnc(C(F)(F)F)cn1`, in that order: below 5.00 and 6.44.

These data come from ChEMBL document CHEMBL3886283, “Cycloalkyl and heterocycloalkyl compounds as orexin receptor antagonists” (2015).
